Read-outs that look alike come from different tables or passages of the source.
Assays:
Format in all cases: biochemical
[1] = molecular target: kinases (Homo sapiens, UniProt O14757); details: CHEK1 (CHK1) FRET-Z-Lyte SP; Test Conc(μM):ATP Conc(μM) 1:50
[2] = molecular target: kinases (Homo sapiens, UniProt O43781); details: DYRK3 FRET-Z-Lyte SP; ATP Conc(μM):Test Conc(μM) 1:5
[3] = molecular target: kinases (Homo sapiens, UniProt P09769); details: FGR FRET-Z-Lyte SP; Test Conc(μM):ATP Conc(μM) 1:10
[4] = molecular target: kinases (Homo sapiens, UniProt P17612); details: PRKACA (PKA) FRET-Z-Lyte SP; Test Conc(μM):ATP Conc(μM) 1:5
[5] = molecular target: kinases (Homo sapiens, UniProt P24723); details: PRKCH (PKC eta) Z-Lyte SP; Test Conc(μM):ATP Conc(μM) 1:25
[6] = molecular target: kinases (Homo sapiens, UniProt P25098); details: ADRBK1 (GRK2) FRET-Z-Lyte SP; Test Conc(μM):ATP Conc(μM) 1:10
Chain of kinases (Homo sapiens, UniProt P25098) (P25098 whole entry): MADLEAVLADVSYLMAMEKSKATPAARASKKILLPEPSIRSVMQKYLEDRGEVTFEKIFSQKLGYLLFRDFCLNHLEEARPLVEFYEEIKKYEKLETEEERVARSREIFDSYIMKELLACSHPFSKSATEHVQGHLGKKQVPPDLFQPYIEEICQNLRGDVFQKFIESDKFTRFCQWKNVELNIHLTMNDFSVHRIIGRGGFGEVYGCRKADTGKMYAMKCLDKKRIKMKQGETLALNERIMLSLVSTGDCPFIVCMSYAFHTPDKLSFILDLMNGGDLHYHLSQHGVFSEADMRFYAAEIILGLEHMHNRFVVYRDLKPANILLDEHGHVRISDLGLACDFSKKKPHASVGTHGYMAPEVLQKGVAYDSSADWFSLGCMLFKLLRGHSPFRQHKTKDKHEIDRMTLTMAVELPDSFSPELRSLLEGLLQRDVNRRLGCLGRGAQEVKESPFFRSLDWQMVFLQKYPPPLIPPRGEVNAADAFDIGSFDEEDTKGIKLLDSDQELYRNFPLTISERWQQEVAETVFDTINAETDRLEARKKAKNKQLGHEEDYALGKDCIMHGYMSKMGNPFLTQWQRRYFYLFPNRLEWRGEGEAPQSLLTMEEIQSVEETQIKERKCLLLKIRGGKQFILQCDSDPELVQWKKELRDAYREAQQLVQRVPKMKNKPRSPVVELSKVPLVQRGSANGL

[7] = molecular target: kinases (Homo sapiens, UniProt P28482); details: MAPK1 (ERK2) FRET-Z-Lyte SP; Test Conc(μM):ATP Conc(μM) 1:100
Chain of kinases (Homo sapiens, UniProt P28482) (P28482 whole entry): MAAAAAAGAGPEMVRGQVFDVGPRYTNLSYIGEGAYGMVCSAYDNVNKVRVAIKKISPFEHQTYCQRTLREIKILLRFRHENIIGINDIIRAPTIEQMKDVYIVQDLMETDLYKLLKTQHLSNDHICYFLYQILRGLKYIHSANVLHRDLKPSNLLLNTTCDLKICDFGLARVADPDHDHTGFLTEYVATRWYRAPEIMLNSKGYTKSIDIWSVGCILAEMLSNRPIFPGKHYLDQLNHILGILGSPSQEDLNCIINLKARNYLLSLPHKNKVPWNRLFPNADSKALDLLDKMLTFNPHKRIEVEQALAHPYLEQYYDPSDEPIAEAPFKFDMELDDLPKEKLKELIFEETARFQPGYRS

[8] = molecular target: kinases (Homo sapiens, UniProt P29322); details: EPHA8 FRET-Z-Lyte SP; Test Conc(μM):ATP Conc(μM) 1:100
[9] = molecular target: kinases (Homo sapiens, UniProt P34947); details: GRK5 *Mn* FRET-Z-Lyte SP; Test Conc(μM):ATP Conc(μM) 1:5
[10] = molecular target: kinases (Homo sapiens, UniProt P36507)
Chain of kinases (Homo sapiens, UniProt P36507) (P36507 whole entry): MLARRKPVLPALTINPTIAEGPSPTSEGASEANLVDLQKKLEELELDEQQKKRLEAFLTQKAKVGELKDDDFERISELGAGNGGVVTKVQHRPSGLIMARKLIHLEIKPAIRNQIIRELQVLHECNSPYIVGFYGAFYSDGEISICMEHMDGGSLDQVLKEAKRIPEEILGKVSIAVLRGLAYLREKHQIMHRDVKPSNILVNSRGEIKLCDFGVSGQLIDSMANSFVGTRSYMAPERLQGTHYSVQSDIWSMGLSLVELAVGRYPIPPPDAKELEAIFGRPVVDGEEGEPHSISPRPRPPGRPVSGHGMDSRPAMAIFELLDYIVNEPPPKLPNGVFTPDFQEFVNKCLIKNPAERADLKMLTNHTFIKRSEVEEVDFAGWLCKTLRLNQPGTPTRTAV

[11] = molecular target: kinases (Homo sapiens, UniProt P37023); details: ACVRL1 (ALK1) FRET-Lantha SP; Test Conc(μM) 1
[12] = molecular target: kinases (Homo sapiens, UniProt P49760); details: CLK2 FRET-Z-Lyte SP; Test Conc(μM):ATP Conc(μM) 1:25
[13] = molecular target: kinases (Homo sapiens, UniProt P49761); details: CLK3 FRET-Z-Lyte SP; Test Conc(μM):ATP Conc(μM) 1:150
[14] = molecular target: kinases (Homo sapiens, UniProt P57059); details: SIK1 FRET-Lantha SP; Test Conc(μM) 1
Chain of kinases (Homo sapiens, UniProt P57059) (P57059 whole entry): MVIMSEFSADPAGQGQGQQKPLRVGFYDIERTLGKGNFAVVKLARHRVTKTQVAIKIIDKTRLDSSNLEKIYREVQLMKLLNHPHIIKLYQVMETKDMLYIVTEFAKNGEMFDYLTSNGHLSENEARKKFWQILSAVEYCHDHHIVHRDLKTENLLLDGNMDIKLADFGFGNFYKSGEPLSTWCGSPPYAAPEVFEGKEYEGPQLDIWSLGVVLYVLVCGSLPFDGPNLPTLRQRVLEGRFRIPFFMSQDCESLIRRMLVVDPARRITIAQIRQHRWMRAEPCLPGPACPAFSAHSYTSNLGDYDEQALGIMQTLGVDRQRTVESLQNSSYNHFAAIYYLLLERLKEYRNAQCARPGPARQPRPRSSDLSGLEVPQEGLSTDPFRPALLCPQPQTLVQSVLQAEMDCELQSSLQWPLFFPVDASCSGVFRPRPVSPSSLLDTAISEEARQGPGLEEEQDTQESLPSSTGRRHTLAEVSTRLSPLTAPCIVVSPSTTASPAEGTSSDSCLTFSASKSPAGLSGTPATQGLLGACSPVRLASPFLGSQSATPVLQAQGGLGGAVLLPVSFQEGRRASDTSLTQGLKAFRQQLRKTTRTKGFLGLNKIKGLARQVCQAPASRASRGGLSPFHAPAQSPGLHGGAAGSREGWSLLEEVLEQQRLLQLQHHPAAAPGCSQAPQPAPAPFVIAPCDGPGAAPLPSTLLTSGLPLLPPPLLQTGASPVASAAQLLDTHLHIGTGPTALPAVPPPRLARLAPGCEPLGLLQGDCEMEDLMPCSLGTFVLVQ

[15] = molecular target: kinases (Homo sapiens, UniProt Q00536); details: CDK16(PCTK1)/cyclinY Lantha SP; Test Conc(μM) 1
Chain of kinases (Homo sapiens, UniProt Q00536) (Q00536 whole entry): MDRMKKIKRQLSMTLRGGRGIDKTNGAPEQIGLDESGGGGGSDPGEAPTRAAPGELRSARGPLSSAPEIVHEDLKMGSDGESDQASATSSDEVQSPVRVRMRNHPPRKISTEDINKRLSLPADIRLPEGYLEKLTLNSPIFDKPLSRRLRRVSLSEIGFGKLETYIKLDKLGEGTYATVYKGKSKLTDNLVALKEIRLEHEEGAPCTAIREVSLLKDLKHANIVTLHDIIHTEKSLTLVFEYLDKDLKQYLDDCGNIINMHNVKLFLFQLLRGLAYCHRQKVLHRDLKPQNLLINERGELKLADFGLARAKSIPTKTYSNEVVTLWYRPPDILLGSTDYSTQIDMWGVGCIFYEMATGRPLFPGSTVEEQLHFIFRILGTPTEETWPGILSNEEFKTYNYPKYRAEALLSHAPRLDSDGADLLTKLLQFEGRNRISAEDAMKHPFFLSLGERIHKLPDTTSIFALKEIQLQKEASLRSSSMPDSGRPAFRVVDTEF

[16] = molecular target: kinases (Homo sapiens, UniProt Q04771); details: ACVR1 (ALK2) FRET-Lantha SP; Test Conc(μM) 1
Chain of kinases (Homo sapiens, UniProt Q04771) (Q04771 21-509): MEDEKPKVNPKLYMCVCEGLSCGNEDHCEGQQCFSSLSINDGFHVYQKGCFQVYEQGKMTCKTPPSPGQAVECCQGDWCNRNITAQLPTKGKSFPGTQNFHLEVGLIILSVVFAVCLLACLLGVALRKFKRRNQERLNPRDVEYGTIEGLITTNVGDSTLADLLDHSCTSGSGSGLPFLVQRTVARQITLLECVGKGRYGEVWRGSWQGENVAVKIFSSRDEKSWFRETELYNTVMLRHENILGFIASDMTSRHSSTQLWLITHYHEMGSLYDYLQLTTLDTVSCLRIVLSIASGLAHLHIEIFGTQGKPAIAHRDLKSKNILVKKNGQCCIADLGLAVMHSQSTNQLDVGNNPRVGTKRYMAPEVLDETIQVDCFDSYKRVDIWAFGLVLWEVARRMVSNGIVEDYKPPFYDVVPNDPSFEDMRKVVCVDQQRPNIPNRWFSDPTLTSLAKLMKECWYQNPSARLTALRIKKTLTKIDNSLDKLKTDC

[17] = molecular target: kinases (Homo sapiens, UniProt Q14004); details: Test Conc(μM) 1
[18] = molecular target: kinases (Homo sapiens, UniProt Q15375); details: EPHA7 FRET-Lantha SP; Test Conc(μM) 1
[19] = molecular target: kinases (Homo sapiens, UniProt Q5VT25); details: CDC42 BPA (MRCKA) Z-Lyte SP; Test Conc(μM):ATP Conc(μM) 1:5
[20] = molecular target: kinases (Homo sapiens, UniProt Q86Z02); details: HIPK1 (Myak) FRET-Z-Lyte SP; Test Conc(μM):ATP Conc(μM) 1:5
[21] = molecular target: kinases (Homo sapiens, UniProt Q8IYT8); details: ULK2 FRET-Lantha SP; Test Conc(μM) 1
Chain of kinases (Homo sapiens, UniProt Q8IYT8) (Q8IYT8 whole entry): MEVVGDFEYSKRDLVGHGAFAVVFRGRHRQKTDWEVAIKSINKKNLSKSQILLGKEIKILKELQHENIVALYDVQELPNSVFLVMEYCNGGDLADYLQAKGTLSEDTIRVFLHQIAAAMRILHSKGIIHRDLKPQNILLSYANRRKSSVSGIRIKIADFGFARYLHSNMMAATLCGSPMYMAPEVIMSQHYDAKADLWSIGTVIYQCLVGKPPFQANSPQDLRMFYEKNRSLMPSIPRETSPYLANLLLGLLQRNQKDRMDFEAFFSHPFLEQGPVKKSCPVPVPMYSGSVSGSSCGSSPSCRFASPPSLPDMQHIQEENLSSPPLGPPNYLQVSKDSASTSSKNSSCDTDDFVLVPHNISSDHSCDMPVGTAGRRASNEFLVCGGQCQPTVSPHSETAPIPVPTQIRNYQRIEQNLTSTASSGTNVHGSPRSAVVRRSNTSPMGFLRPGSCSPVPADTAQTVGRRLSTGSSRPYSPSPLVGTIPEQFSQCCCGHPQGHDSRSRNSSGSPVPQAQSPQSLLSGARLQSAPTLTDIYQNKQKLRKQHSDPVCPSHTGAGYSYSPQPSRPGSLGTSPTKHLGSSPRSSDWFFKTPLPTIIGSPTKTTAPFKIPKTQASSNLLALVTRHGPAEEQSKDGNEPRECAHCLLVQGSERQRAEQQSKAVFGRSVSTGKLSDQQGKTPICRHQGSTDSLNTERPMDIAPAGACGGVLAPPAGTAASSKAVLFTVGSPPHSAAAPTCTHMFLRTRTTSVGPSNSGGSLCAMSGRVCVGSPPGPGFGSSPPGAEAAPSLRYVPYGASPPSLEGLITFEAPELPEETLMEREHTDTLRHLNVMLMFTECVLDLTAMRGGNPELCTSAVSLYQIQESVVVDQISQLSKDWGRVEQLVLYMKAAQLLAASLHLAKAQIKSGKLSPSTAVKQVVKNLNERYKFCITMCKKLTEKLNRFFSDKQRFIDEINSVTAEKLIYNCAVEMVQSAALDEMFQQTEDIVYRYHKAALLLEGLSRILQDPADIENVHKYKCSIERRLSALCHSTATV

[22] = molecular target: kinases (Homo sapiens, UniProt Q8TDC3); details: BRSK1 (SAD1) FRET-Z-Lyte SP; Test Conc(μM):ATP Conc(μM) 1:25
Chain of kinases (Homo sapiens, UniProt Q8TDC3) (Q8TDC3 whole entry): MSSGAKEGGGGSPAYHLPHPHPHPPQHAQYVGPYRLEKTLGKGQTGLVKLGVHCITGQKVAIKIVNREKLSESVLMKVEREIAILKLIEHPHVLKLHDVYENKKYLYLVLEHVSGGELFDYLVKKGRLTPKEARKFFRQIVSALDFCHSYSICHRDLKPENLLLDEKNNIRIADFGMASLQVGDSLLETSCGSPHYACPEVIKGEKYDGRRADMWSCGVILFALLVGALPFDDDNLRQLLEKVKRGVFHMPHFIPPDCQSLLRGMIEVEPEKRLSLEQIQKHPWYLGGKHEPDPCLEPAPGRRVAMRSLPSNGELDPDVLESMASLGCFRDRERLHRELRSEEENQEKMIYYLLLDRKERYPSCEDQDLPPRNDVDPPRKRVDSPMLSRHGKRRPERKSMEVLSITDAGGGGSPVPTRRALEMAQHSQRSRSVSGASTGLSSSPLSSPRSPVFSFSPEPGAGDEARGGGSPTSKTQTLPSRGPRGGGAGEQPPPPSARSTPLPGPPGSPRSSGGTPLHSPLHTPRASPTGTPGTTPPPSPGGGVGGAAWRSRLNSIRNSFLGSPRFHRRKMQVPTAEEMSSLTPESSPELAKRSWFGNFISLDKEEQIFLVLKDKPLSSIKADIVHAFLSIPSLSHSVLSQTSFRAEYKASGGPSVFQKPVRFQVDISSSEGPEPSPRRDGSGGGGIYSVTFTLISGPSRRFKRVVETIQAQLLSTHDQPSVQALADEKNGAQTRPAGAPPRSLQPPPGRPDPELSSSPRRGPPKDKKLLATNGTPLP

[23] = molecular target: kinases (Homo sapiens, UniProt Q8TDX7); details: NEK7 FRET-Z-Lyte SP; Test Conc(μM):ATP Conc(μM) 1:50
[24] = molecular target: kinases (Homo sapiens, UniProt Q99683); details: MAP3K5 (ASK1) FRET-Lantha SP; Test Conc(μM) 1
[25] = molecular target: kinases (Homo sapiens, UniProt Q9NY57); details: STK32B (YANK2) FRET-Lantha SP; Test Conc(μM) 1
[26] = molecular target: kinases (Homo sapiens, UniProt Q9UHD2); details: TBK1 FRET-Z-Lyte SP; Test Conc(μM):ATP Conc(μM) 1:25
[27] = molecular target: kinases (Homo sapiens, UniProt Q9UKI8); details: TLK1 FRET-Lantha SP; Test Conc(μM) 1
[28] = molecular target: kinases (Homo sapiens, UniProt Q9UPE1); details: STK23 (MSSK1) FRET-Z-Lyte SP; Test Conc(μM):ATP Conc(μM) 1:75
[29] = MAP2K2 (MEK2) FRET-Lantha SP, Test Conc(μM) 1
[30] = MAP2K2 (MEK2)Cascade Z-Lyte SP, Test Conc(μM):ATP Conc(μM) 1:100

SMILES | Mean Inhib (%) [1] | Mean Inhib (%) [2] | Mean Inhib (%) [3] | Mean Inhib (%) [4] | Mean Inhib (%) [5] | Mean Inhib (%) [6] | Mean Inhib (%) [7] | Mean Inhib (%) [8] | Mean Inhib (%) [9] | Mean Inhib (%) [10, 29] | Mean Inhib (%) [10, 30] | Mean Inhib (%) [11] | Mean Inhib (%) [12] | Mean Inhib (%) [13] | Mean Inhib (%) [14] | Mean Inhib (%) [15] | Mean Inhib (%) [16] | Mean Inhib (%) [18] | Mean Inhib (%) [19] | Mean Inhib (%) [20] | other results
Cc1ccc(NC(=O)c2ccnc(N3CCOCC3)c2)cc1Nc1ccnc(N2CC(C)OC(C)C2)n1 (stereo not shown) [compound 3] | 6.3% | 0.4% | 9.4% | 2.2% | 9.3% | 8.4% | 3.6% | 8.6% | 4.7% | 1.7% | −1.0% | 7.2% | 3.7% | 2.0% | −0.5% | 3.4% | 2.3% | 6.5% | −2.0% | 1.3% | Mean Inhib (%) ([17]; CDK13 Cyclin K FRET-Lantha SP): 5.4%; Mean Inhib (%) [21]: 2.6%; Mean Inhib (%) [22]: 2.2%; Mean Inhib (%) [23]: 7.4%; Mean Inhib (%) [24]: 0.2%; Mean Inhib (%) [25]: −1.3%; Mean Inhib (%) [26]: −0.8%; Mean Inhib (%) [27]: −4.3%; Mean Inhib (%) [28]: 4.3%
Cc1cc(Oc2ccnc(Nc3ccc(S(N)(=O)=O)cc3)c2)c(-c2ccccn2)nc1C [compound 65] | 14.8% | −1.2% | 67.3% | −4.7% | 0.8% | 1.0% | 7.5% | 64.7% | 4.6% | −0.2% | 10.4% | 77.2% | 15.7% | 5.1% | 1.8% | 0.2% | 88.2% | 10.4% | −2.0% | 1.2% | CDK13 Cyclin K FRET-Lantha SP Mean Mean Inhib (%) ([17]; CDK13 Cyclin K): 4.1%; Mean Inhib (%) [21]: −1.0%; Mean Inhib (%) [22]: 4.7%; Mean Inhib (%) [23]: 6.9%; Mean Inhib (%) [24]: 6.1%; Mean Inhib (%) [25]: 2.1%; Mean Inhib (%) [26]: 4.2%; Mean Inhib (%) [27]: −4.5%; Mean Inhib (%) [28]: −4.8%

From patent US20220187282A1, “CARDIOMYOCYTE PROLIFERATION” (The Council of the Queensland Institute of Medical Research, priority 2019, published 2022)
